Assay results reported in patent US5459132A, “N6-[(Imidazo[1,2-a]pyridin-3-yl)ethyl]adenosines, their 5'-uronamide analogues and pharmaceutical compositions” (Laboratoires UPSA, priority 1994, dated 1995).

How the values were obtained:
[1] = tested on: mice; test: Phenylbenzoquinone test (analgesic activity); format: in vivo; conditions: one hour before phenylbenzoquinone injection, 5 minutes observation
Experimental: 2. Phenylbenzoquinone test
The intraperitoneal injection of phenylbenzoquinone causes twisting and stretching movements in mice. Analgesics prevent or reduce this syndrome, which can be considered as the exteriorization of diffuse abdominal pain.
A 0.02% solution of phenylbenzoquinone in water is administered in a volume of 1 ml/100 g.
The products of the Examples are administered orally one hour before the injection of phenylbenzoquinone.
The stretching and twisting movements are counted for each mouse over an observation period of 5 minutes.

[2] = tested on: Balbc 3T3 fibroblasts; test: Inhibition of the cell proliferation induced by a growth factor (PDGF) in Balbc 3T3 fibroblasts, ^3H-thymidine incorporation; format: cell-based; conditions: for % inhibition of the incorporation of ^3H-thymidine stimulated by PDGF, 1E-6M: test molecule 1E-6M
Experimental: Measurement of the inhibition of the cell proliferation induced by a growth factor in Balbc […] 3T3 fibroblasts
Inhibition of the cell proliferation induced by a growth factor (for example PDGF) is evaluated by measuring the incorporation of ^3 H-thymidine into Balbc 3T3 fibroblasts.
The Balbc 3T3 fibroblasts are cultivated at 37° C. with 5% of CO2 up to the point of subconfluence and are then placed for 18 hours under rest conditions in a serum-impoverished medium. They are subsequently pretreated for one hour with the test molecule (10^-5 M and/or 10^-6 M) and then stimulated for 22 hours with a growth factor (for example PDGF). ^3 H-Thymidine is incorporated over the last 2 hours. All these steps are performed at 37° C. with 5% of CO2.
The reaction is terminated by sucking off the reaction medium, detaching the cells and then filtering the lyzed cells through glass fiber filters.
The results are expressed as the percentage inhibition of the stimulation of ^3 H-thymidine incorporation induced by the growth factor.

O=C(NC1CC1)[C@H]1O[C@@H](n2cnc3c(NCCc4cnc5c(OCc6ccccc6)cccn45)ncnc32)[C@H](O)[C@@H]1O [Example 33, β-D-Ribofuranuronamido-N-cyclopropyl-1-deoxy-1-[6-[[2-[8-(phenylmethoxy)imidazo[1,2-a]pyridin-3-yl]ethyl]amino]-9H-purin-9-yl]]
Phenylbenzoquinone test % inhibition at 30 mg/kg p.o. [1]: 39%

Cc1ccc(C)c(COc2cccn3c(CCNc4ncnc5c4ncn5[C@@H]4O[C@H](C(=O)NC5CC5)[C@@H](O)[C@H]4O)cnc23)c1 [Example 34, β-D-Ribofuranuronamido-N-cyclopropyl-1-deoxy-1-[6-[[2-[[8-(2,5-dimethylphenyl)methoxy]imidazo[1,2-a]pyridin-3-yl]ethyl]amino]-9H-purin-9-yl]]
Phenylbenzoquinone test % inhibition at 30 mg/kg p.o. [1]: 57%
% inhibition of the incorporation of ^3H-thymidine stimulated by PDGF, 1E-6M [2]: 72%

COCCOc1cccn2c(CCNc3ncnc4c3ncn4[C@@H]3O[C@H](C(=O)NC4CC4)[C@@H](O)[C@H]3O)cnc12 [Example 35, β-D-Ribofuranuronamido-N-cyclopropyl-1-deoxy-1-[6-[[2-[8-(2-methoxyethoxy)imidazo[1,2-a]pyridin-3-yl]ethyl]amino]-9H-purin-9-yl]]
Phenylbenzoquinone test % inhibition at 30 mg/kg p.o. [1]: 25%

Cc1ccc(C)c(COc2cccn3c(CCNc4ncnc5c4ncn5[C@@H]4O[C@H](C(=O)NC5CC5)[C@@H](O)[C@H]4O)c(C)nc23)c1 [Example 36, β-D-Ribofuranuronamido-N-cyclopropy-1-deoxy-1-[6-[[2-[[8-(2,5-dimethylphenyl)methoxy]-2-methylimidazo[1,2-a]pyridin-3-yl]ethyl]amino]-9H-purin-9-yl]]
Phenylbenzoquinone test % inhibition at 30 mg/kg p.o. [1]: 63%
% inhibition of the incorporation of ^3H-thymidine stimulated by PDGF, 1E-6M [2]: 80%

O=C(NC1CC1)[C@H]1O[C@@H](n2cnc3c(NCCc4cnc5c(OC6CCCC6)cccn45)ncnc32)[C@H](O)[C@@H]1O [Example 37, β-D-Ribofuranuronamido-N-cyclopropyl-1-deoxy-1-[6-[[2-[8-(cyclopentoxy)imidazo[1,2-a]pyridin-3-yl]ethyl]amino]-9H-purin-9-yl]]
Phenylbenzoquinone test % inhibition at 30 mg/kg p.o. [1]: 57%
% inhibition of the incorporation of ^3H-thymidine stimulated by PDGF, 1E-5M ([2]; test molecule 1E-5M): 63%
